Data published in patent US20140011769A1, “Methods of Treating Retroviral Infections and Related Dosage Regimes” (Chimerix, Inc., priority 2012, published 2014).

Test system: HTLV-I proviral DNA
Assay: PCR of proviral HTLV-I DNA in co-cultured PBMCs
Assay type: cell-based
Details: for relative intensity of amplified HTLV-I versus infected controls (PBMC+MT-2 cells): two and four weeks, all concentrations; for concentration giving less integration of proviral DNA by PCR: weeks 2 and 4
Protocol: Co-Culture for HTLV-I Replication: Cell cultures were incubated at 37° C./5% CO2 for four weeks. Cell viability and density was monitored by trypan blue dye exclusion test. Cell density was readjusted to 8×10^5 cells per mL on days 3, 7, 10, 14, 21 and 28. Compound was added with the half-volume fresh medium exchange on days 3, 7, and 10. Supernatant was collected on days 14, 21 and 28 for measurement of HTLV-I virus replication by p19 Gag ELISA. Cell samples were also collected on days 14 and 28 for genomic DNA extraction and PCR analysis of HTLV-I proviral DNA. Untreated PBMCs co-cultured with MT-2 cells, PBMCs alone, and mitomycin C-treated MT-2 cells alone were cultured in parallel as controls.
(§1) PCR of Proviral HTLV-I DNA: The presence of HTLV-I proviral DNA at 2 and 4 weeks in treated and untreated PBMC cells was examined using a PCR assay. Total DNA was extracted from frozen cell pellets using Qiagen DNEasy Blood and Tissue kits according to the manufacturer's recommended method for extraction from cultured cells. DNA was eluted in 200 μl of Buffer AE and the concentration was determined by absorbance at 260 nm in a Spectramax 386 Plus plate reader. Fifty nanograms of extracted DNA was subjected to two separate PCR amplifications using primer sets for HTLV-I and human GAPDH. Amplifications were performed using PCR primer sets designed at ImQuest BioSciences and synthesized by IDT (Coraville, Id.). Amplification of HTLV-I proviral DNA was performed using 50 ng of extracted DNA in a 25 μl reaction volume with TaqPro complete (Denville Scientific, Metuchen, N.J.) and DNA oligonucleotide primers (0.2 μM each) HTLV-3281-F (5′-AACTTCAAGCCCTACTTGGCGAGA-3′[SED ID NO.: 1]) and HTLV-3666-R (5′-TGTATGGTTTGGCAGAGTAGCCCA-3′ [SED ID NO.: 2]). Amplification of human GAPDH DNA sequences was performed using 50 ng of extracted DNA in a 25 μl reaction volume with TaqPro complete and DNA oligonucleotide primers (0.2 μM each) hGAPDH-gF1 (5′-GAAGGAAATGAATGGGCAGCCGTT-3′ [SED ID NO.: 3]) and GAPDH-gR1 (5′-ATTTGCCAAGTTGCCTGTCCTTCC-3′ [SED ID NO.: 4]). Amplification conditions for both HTLV-I and GAPDH consisted of an initial denaturation step of 95° C. for 5 min followed by 40 cycles of 95° C. for 30 sec, 62° C. for 30 sec, 72° C. for 45 sec and a final extension of 72° C. for 5 min. The amplified DNA products were evaluated by agarose gel electrophoresis and ethidium bromide staining.
as §1, with “AGA-3′ [SED” for “AGA-3′[SED”, “5])” for “1])”, “6]).” for “2]).”, “7])” for “3])”, “8]). […]” for “4]). Amplification conditions for both HTLV-I and GAPDH consisted of an initial denaturation step of 95° C. for 5 min followed by 40 cycles of 95° C. for 30 sec, 62° C. for 30 sec, 72° C. for 45 sec and a final extension of 72° C. for 5 min. The amplified DNA products were evaluated by agarose gel electrophoresis and ethidium bromide staining.”

Row | Compound | relative intensity of amplified HTLV-I versus infected controls (PBMC+MT-2 cells) | concentration giving less integration of proviral DNA by PCR | concentration inhibiting accumulation of HTLV proviral DNA (two weeks of treatment) [µM] | also measured
1 | Cc1cn([C@H]2C[C@H](N=[N+]=[N-])[C@@H](CO)O2)c(=O)[nH]c1=O [AZT, 3′-azido-2′,3′-dideoxythymidine] | either equal or less than | above 0.1 μM |  | 
2 | Nc1ccn(C[C@@H](CO)OCP(=O)(O)O)c(=O)n1 [Cidofovir, (S)-9-(3-hydroxy-2-phosphonylmethoxypropyl)cytosine] |  |  | 100 | 
3 | CCCCCCCCCCCCCCCCOCCCOP(=O)(O)CO[C@H](CO)Cn1ccc(N)nc1=O [HDP-CDV, hexadecyloxypropyl cidofovir] |  |  | ≥ 0.2 | concentration inhibiting accumulation of HTLV proviral DNA (four weeks of treatment): all concentrations
4 | CCCCCCCCCCCCCCCCOCCCOP(=O)(O)CO[C@H](C)Cn1cnc2c(N)ncnc21 [HDP-TFV, 3-(hexadecyloxy)propyl hydrogen ((R)-1-(6-amino-9H-purin 9-yl)propan-2-yloxy)methylphosphonate] |  |  |  | inhibition of HTLV proviral DNA accumulation (four weeks of treatment, lower concentrations): apparent
5 | C[C@H](Cn1cnc2c(N)ncnc21)OCP(=O)(O)O [Tenofovir, (R)-9-(2-phosphonylmethoxypropyl)adenine] | either equal or less than | 25 µM |  | 
